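Cells were grown in 96-well plates and exposed to each compound for 48 hours at five concentrations; endpoints were interpolated linearly between bracketing concentrations, or set to the highest concentration if not reached. TGI: concentration producing complete growth inhibition.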
Experiments:
Assay in all cases: growth of human tumour cells (NCI), 48 h
[1] = system: 786-0 renal
[2] = system: A498 renal
[3] = system: ACHN renal
[4] = system: BT-549 breast
[5] = system: CAKI-1 renal
[6] = system: CCRF-CEM leukemia
[7] = system: COLO 205 colon
[8] = system: DU-145 prostate
[9] = system: EKVX NSCLC
[10] = system: HCT-116 colon
[11] = system: HCT-15 colon
[12] = system: HL-60(TB) leukemia
[13] = system: HOP-62 NSCLC
[14] = system: HS 578T breast
[15] = system: HT29 colon
[16] = system: IGROV1 ovarian
[17] = system: K-562 leukemia
[18] = system: KM12 colon
[19] = system: LOX IMVI melanoma
[20] = system: M14 melanoma
[21] = system: MALME-3M melanoma
[22] = system: MCF7 breast
[23] = system: MDA-MB-231 breast
[24] = system: MDA-MB-435
[25] = system: MDA-N
[26] = system: MOLT-4 leukemia
[27] = system: NCI-H226 lung
[28] = system: NCI-H23 lung
[29] = system: NCI-H460 lung
[30] = system: NCI/ADR-RES ovarian
[31] = system: OVCAR-3 ovarian
[32] = system: OVCAR-5 ovarian
[33] = system: OVCAR-8 ovarian
[34] = system: PC-3 prostate
[35] = system: RPMI-8226 leukemia
[36] = system: RXF 393 renal
[37] = system: SF-268 CNS
[38] = system: SF-295 CNS
[39] = system: SF-539 CNS
[40] = system: SK-MEL-2 melanoma
[41] = system: SK-MEL-28 melanoma
[42] = system: SK-MEL-5 melanoma
[43] = system: SK-OV-3 ovarian
[44] = system: SN12C renal
[45] = system: SNB-19 CNS
[46] = system: SNB-75 CNS
[47] = system: SR leukemia
[48] = system: SW-620 colon
[49] = system: T-47D breast
[50] = system: TK-10 renal
[51] = system: U251 CNS
[52] = system: UACC-257 melanoma
[53] = system: UACC-62 melanoma
[54] = system: UO-31 renal
[55] = system: A549 NSCLC
[56] = system: NCI-H522 lung
[57] = system: OVCAR-4 ovarian

CCCC(C)NC(=O)c1ccc(N(C)Cc2cnc3nc(N)nc(N)c3n2)cc1 (stereo not drawn)
TGI [1]: > 100 µM
TGI [2]: > 100 µM
TGI [3]: 92.5 µM
TGI [4]: 41.6 µM
TGI [5]: > 100 µM
TGI [6]: > 100 µM
TGI [7]: > 100 µM
TGI [8]: > 100 µM
TGI [9]: > 100 µM
TGI [10]: > 100 µM
TGI [11]: > 100 µM
TGI [12]: > 100 µM
TGI [13]: 89.4 µM
TGI [14]: 44.2 µM
TGI [15]: 58.6 µM
TGI [16]: > 100 µM
TGI [17]: > 100 µM
TGI [18]: > 100 µM
TGI [19]: 82.6 µM
TGI [20]: 31.1 µM
TGI [21]: 39.3 µM
TGI [22]: 78 µM
TGI [23]: > 100 µM
TGI [24]: 48.2 µM
TGI [25]: > 100 µM
TGI [26]: > 100 µM
TGI [27]: 47.6 µM
TGI [28]: > 100 µM
TGI [29]: > 100 µM
TGI [30]: > 100 µM
TGI [31]: 46.2 µM
TGI [32]: 88.6 µM
TGI [33]: 75.2 µM
TGI [34]: > 100 µM
TGI [35]: > 100 µM
TGI [36]: 84.5 µM
TGI [37]: > 100 µM
TGI [38]: > 100 µM
TGI [39]: 32.3 µM
TGI [40]: 49 µM
TGI [41]: 42.3 µM
TGI [42]: 37.4 µM
TGI [43]: > 100 µM
TGI [44]: > 100 µM
TGI [45]: > 100 µM
TGI [46]: 56.6 µM
TGI [47]: > 100 µM
TGI [48]: > 100 µM
TGI [49]: 53.9 µM
TGI [50]: 86.1 µM
TGI [51]: > 100 µM
TGI [52]: 57.5 µM
TGI [53]: 25.7 µM
TGI [54]: > 100 µM

N=c1ccc2nc(N)nn(O)c-2c1
TGI [1]: > 100 µM
TGI [2]: > 100 µM
TGI [55]: > 100 µM
TGI [3]: > 100 µM
TGI [4]: > 100 µM
TGI [5]: > 100 µM
TGI [6]: > 100 µM
TGI [7]: > 100 µM
TGI [8]: > 100 µM
TGI [9]: > 100 µM
TGI [10]: > 100 µM
TGI [11]: > 100 µM
TGI [12]: > 100 µM
TGI [13]: > 100 µM
TGI [14]: > 100 µM
TGI [15]: > 100 µM
TGI [16]: > 100 µM
TGI [17]: > 100 µM
TGI [18]: > 100 µM
TGI [19]: > 100 µM
TGI [20]: > 100 µM
TGI [22]: > 100 µM
TGI [23]: > 100 µM
TGI [24]: > 100 µM
TGI [25]: > 100 µM
TGI [26]: > 100 µM
TGI [27]: > 100 µM
TGI [28]: > 100 µM
TGI [29]: > 100 µM
TGI [56]: > 100 µM
TGI [30]: > 100 µM
TGI [31]: > 100 µM
TGI [57]: > 100 µM
TGI [32]: > 100 µM
TGI [33]: > 100 µM
TGI [34]: > 100 µM
TGI [35]: > 100 µM
TGI [37]: > 100 µM
TGI [39]: > 100 µM
TGI [40]: > 100 µM
TGI [41]: > 100 µM
TGI [42]: > 100 µM
TGI [43]: > 100 µM
TGI [44]: > 100 µM
TGI [45]: > 100 µM
TGI [46]: > 100 µM
TGI [47]: > 100 µM
TGI [48]: > 100 µM
TGI [49]: > 100 µM
TGI [50]: > 100 µM
TGI [51]: > 100 µM
TGI [52]: > 100 µM
TGI [53]: > 100 µM
TGI [54]: > 100 µM

— PubChem BioAssay (NCI)
